Assay results: patent US12310963B2, “Pyrazole derivatives and use thereof” (Tarapeutics Science Inc., priority 2019, dated 2025)

Legend:
BaF3 = experiment: Growth of parental BaF3 cells, Cell Titer-Glo, 72 h; assay type: cell-based; details: Mus musculus
From the text: (§1) In this example, mouse primary B cell BaF3 (purchased from ATCC, U.S.A.) was used. In addition, in this example, mouse BaF3-tel-PDGFRα (stably expressing PDGFRα kinase), mouse BaF3-tel-PDGFRβ (stably expressing PDGFRβ kinase), BaF3-P210 (stably expressing ABL kinase), BaF3-P210-T315I (stably expressing ABL-T315I kinase), BaF3-FL-BRAF-V600E (stably expressing BRAF-V600E kinase), BaF3-TEL-cKIT (stably expressing cKIT kinase), BaF3-TEL-VEGFR2 (stably expressing VEGFR2 kinase), BaF3-TEL-FGFR2 (stably expressing FGFR2 kinase) were also used. The above-mentioned cell trains were all constructed in our laboratory by the method as follows. The sequences of human BCR-ABL (P210 or P210/T315I mutated), full-length BRAF-V600E, cKIT, VEGFR2, FGFR2, PDGFRα, PDGFRβ kinase region were amplified respectively via PCR, and inserted respectively into a MSCV-Puro vector (purchased from Clontech) having a N-terminal TEL fragment and/or NPM fragment and/or TPR fragment, and stably transferred into mouse BaF3 cells by the retroviral method, and the growth factor IL-3 was removed. Eventually, cell lines which are transferred into proteins depending on PDGFRα, PDGFRβ were obtained.
(§2) In this example, solutions of the test compound at different concentrations (0.000508 μM, 0.00152 μM, 0.00457 μM, 0.0137 μM, 0.0411 μM, 0.123 μM, 0.370 μM, 1.11 μM, 3.33 μM, 10 μM) were added to the above cells. The cells were incubated for 72 hours.

[1] = test system: BaF3-tel-PDGFRβ (stably expressing PDGFRβ kinase); experiment: Growth of BaF3-tel-PDGFRβ cells, Cell Titer-Glo, 72 h; assay type: cell-based, mouse
From the text: as §1, §2

[2] = test system: BaF3-tel-PDGFRα (stably expressing PDGFRα kinase); experiment: Growth of BaF3-tel-PDGFRα cells, Cell Titer-Glo, 72 h; assay type: cell-based, mouse
From the text: as §1, §2

[3] = test system: BaF3-P210 (stably expressing ABL kinase; BCR-ABL P210); experiment: Growth of BaF3-P210 cells, Cell Titer-Glo, 72 h; assay type: cell-based, mouse
From the text: as §1
(§3) In this example, solutions of the test compound at different concentrations (0.000508 μM, 0.00152 μM, 0.00457 μM, 0.0137 μM, 0.0411 μM, 0.123 μM, 0.370 μM, 1.11 μM, 3.33 μM, 10 μM) were added to the above cells. […]

[4] = biological target: T1, BaF3-FL-BRAF-V600E (stably expressing BRAF-V600E kinase) (Homo sapiens, UniProt P15056, V600E); experiment: Growth of BaF3-FL-BRAF-V600E cells, Cell Titer-Glo, 72 h; assay type: cell-based, mouse
T1 construct: human BCR-ABL (P210 or P210/T315I mutated), full-length BRAF-V600E; expressed in transfected cells; host or cells: mouse BaF3, retroviral MSCV-Puro
T1 sequence (P15056 whole entry V600E): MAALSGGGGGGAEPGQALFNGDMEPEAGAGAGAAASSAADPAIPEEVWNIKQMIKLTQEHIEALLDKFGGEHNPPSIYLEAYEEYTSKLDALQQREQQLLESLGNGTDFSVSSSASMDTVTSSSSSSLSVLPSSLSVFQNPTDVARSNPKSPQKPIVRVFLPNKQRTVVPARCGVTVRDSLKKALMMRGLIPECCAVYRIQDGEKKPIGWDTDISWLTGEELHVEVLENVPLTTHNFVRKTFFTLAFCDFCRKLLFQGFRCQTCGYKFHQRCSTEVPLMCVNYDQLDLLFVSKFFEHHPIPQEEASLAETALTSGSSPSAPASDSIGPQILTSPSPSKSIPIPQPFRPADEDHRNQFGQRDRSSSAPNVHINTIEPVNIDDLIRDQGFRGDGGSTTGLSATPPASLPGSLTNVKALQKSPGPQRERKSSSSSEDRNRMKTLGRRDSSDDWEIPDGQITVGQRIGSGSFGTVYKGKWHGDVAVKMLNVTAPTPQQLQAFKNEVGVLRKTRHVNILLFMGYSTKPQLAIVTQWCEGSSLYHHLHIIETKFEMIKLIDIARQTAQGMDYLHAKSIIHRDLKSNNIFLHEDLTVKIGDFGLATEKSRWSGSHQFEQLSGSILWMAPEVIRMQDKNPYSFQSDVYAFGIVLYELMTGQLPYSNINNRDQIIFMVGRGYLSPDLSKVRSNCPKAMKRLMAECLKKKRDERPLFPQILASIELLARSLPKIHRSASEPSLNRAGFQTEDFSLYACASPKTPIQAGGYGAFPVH
From the text: as §1, §3

[5] = test system: BaF3-TEL-VEGFR2 (stably expressing VEGFR2 kinase); experiment: Growth of BaF3-TEL-VEGFR2 cells, Cell Titer-Glo, 72 h; assay type: cell-based, mouse
From the text: as §1, §3

[6] = test system: human chronic eosinophilic leukemia cells EOL-1 (expressing PDGFRα); experiment: Mouse tumor model of human chronic eosinophilic leukemia cells EOL-1; assay type: in vivo
Protocol: • 1) Bal b/c female mice, 4-6 weeks old, were purchased from Shanghai SLAC Laboratory Animal Co., Ltd., and were raised in an SPF laboratory; the drinking water and the bedding were both sterilized by autoclaving; and all the operations involving the mice were performed under aseptic conditions; • 2) On Day 0, 1×10^7 human chronic eosinophilic leukemia cells EOL-1 (expressing PDGFRα) (purchased from ATCC) were injected subcutaneously into the left flank of each of the mice; • 3) On Day 15, the mice were randomly divided into four groups with five mice per group, and were administered respectively for 14 days. […] The tumor volume was calculated as length×width×width/2 mm^3.

Cc1ccc(NC(=O)c2cccc(C(F)(F)F)n2)cc1-n1cc(-c2cncc(N3CCN(C)CC3)c2)cn1 [Compound 1, N-(4-methyl-3-(4-(5-(4-methylpiperazin-1-yl)pyridin-3-yl)-1H-pyrazol-1-yl)phenyl)-6-(trifluoromethyl)picolinamide]
GI50 (BaF3): 4.08 µM | GI50 [1]: 0.43 µM | GI50 [2]: 0.056 µM | GI50 ([3]; BaF3-P210 cells, 72 hours): > 10 µM | inhibitory effect against ABL (in words) ([3]; summary of Table 2): no inhibitory effect, or a relatively weak inhibitory effect | GI50 ([4]; BaF3-FL-BRAF-V600E cells, 72 hours): 4.7 µM | inhibitory effect against BRAF-V600E (in words) ([4]; summary of Table 2): no inhibitory effect, or a relatively weak inhibitory effect | GI50 ([5]; BaF3-TEL-VEGFR2 cells, 72 hours): 4 µM | inhibitory effect against VEGFR2 (in words) ([5]; summary of Table 2): no inhibitory effect, or a relatively weak inhibitory effect | tumor growth inhibitory rate (TGI) ([6]; 5 mg/kg, 14 days after administration, by tumor weight vs control group, FIG. 1c): 96% | effect on tumor size (in words) ([6]; 5 mg/kg, FIG. 1b): excellent effect in inhibiting the tumor | effect on the body weight of the mouse (in words) ([6]; EOL-1 mouse model, 14 days administration, FIG. 1a): little effect on the body weight
